Experimental data as given in ChEMBL document CHEMBL1201862, “PubChem BioAssay data set” (2004).
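Five compound concentrations were applied to cells in 96-well plates for 48 hours; endpoints were derived by simple linear interpolation of the resulting dose-response curve. The concentration for 50% growth inhibition is given as GI50.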 Activity calls are given as the source filed them. Rule as the data show it: active = GI50 up to about 1.1 µM and inactive = higher.

Tests used:
Experiment in all cases: NCI tumour cell line growth inhibition, 48 h
[1] = system: OVCAR-4
[2] = system: NCI-H522
[3] = system: OVCAR-5
[4] = system: SF-539
[5] = system: 786-0
[6] = system: NCI-H460
[7] = system: LXFL 529
[8] = system: SN12C
[9] = system: UO-31
[10] = system: MOLT-4
[11] = system: SF-268
[12] = system: HCT-116
[13] = system: CCRF-CEM
[14] = system: TK-10
[15] = system: HCT-15
[16] = system: SW-620
[17] = system: SK-MEL-5
[18] = system: DU-145
[19] = system: BT-549

SMILES	GI50 [1]	GI50 [2]	GI50 [3]	GI50 [4]	GI50 [5]	GI50 [6]	GI50 [7]	GI50 [8]	GI50 [9]	GI50 [10]	GI50 [11]	GI50 [12]	GI50 [13]	GI50 [14]	GI50 [15] [µM]	GI50 [16]	GI50 [17]	GI50 [18]	GI50 [19]
CCc1ccccc1NC(=O)C(=O)CC(=O)c1sc(Nc2ccccc2)nc1C	> 100 µM (inactive)	73.5 µM (inactive)	> 100 µM (inactive)	> 100 µM (inactive)	> 100 µM (inactive)	> 100 µM (inactive)	> 100 µM (inactive)	> 100 µM (inactive)	> 100 µM (inactive)	48.6 µM (inactive)	> 100 µM (inactive)	> 100 µM (inactive)	32.1 µM (inactive)	> 100 µM (inactive)	> 100	> 100 µM (inactive)	> 100 µM (inactive)	–	–
CC(C)C1COC(c2cccc(C3=N[C@@H](C(C)C)CO3)n2)=N1 (some centres not stated)	> 100 µM (inactive)	> 100 µM (inactive)	> 100 µM (inactive)	> 100 µM (inactive)	> 100 µM (inactive)	> 100 µM (inactive)	> 100 µM (inactive)	> 100 µM (inactive)	98.6 µM (inactive)	> 100 µM (inactive)	> 100 µM (inactive)	> 100 µM (inactive)	> 100 µM (inactive)	> 100 µM (inactive)	> 100	> 100 µM (inactive)	> 100 µM (inactive)	–	–
O=C(NCCCCCCNC(=O)c1cccc2ccccc12)c1cccc2ccccc12	14.4 µM (inactive)	17.9 µM (inactive)	> 100 µM (inactive)	11.8 µM (inactive)	23.7 µM (inactive)	42.5 µM (inactive)	57.1 µM (inactive)	25.7 µM (inactive)	31.5 µM (inactive)	> 100 µM (inactive)	10.3 µM (inactive)	14.4 µM (inactive)	> 100 µM (inactive)	14.9 µM (inactive)	> 100	> 100 µM (inactive)	> 100 µM (inactive)	–	–
O=C1C=Cc2ncccc2C1=O	5.77 µM (inactive)	15.7 µM (inactive)	> 44.2 µM (inactive)	21.1 µM (inactive)	15.7 µM (inactive)	20 µM (inactive)	16.5 µM (inactive)	21.2 µM (inactive)	30.5 µM (inactive)	2.45 µM (inactive)	34.4 µM (inactive)	16.9 µM (inactive)	7.05 µM (inactive)	> 44.9 µM (inactive)	18.1	15.4 µM (inactive)	14.9 µM (inactive)	–	–
COc1ccc2c3c(n(Cc4ccccc4)c(=O)c2c1)-c1cc(OC)c(OC)cc1C3C (configuration not stated)	6.61 µM (inactive)	9.08 µM (inactive)	> 28.4 µM (inactive)	7.52 µM (inactive)	7.45 µM (inactive)	4.71 µM (inactive)	10.4 µM (inactive)	14.7 µM (inactive)	22.2 µM (inactive)	8.32 µM (inactive)	9.91 µM (inactive)	14.7 µM (inactive)	> 89.5 µM (inactive)	> 54.3 µM (inactive)	28.1	35.7 µM (inactive)	12.2 µM (inactive)	–	–
CN(c1ccccc1)c1cc2ccccc2nn1	> 100 µM (inactive)	27.6 µM (inactive)	> 100 µM (inactive)	> 100 µM (inactive)	> 100 µM (inactive)	> 100 µM (inactive)	56.1 µM (inactive)	> 100 µM (inactive)	29.3 µM (inactive)	52.7 µM (inactive)	> 100 µM (inactive)	> 100 µM (inactive)	47.1 µM (inactive)	> 100 µM (inactive)	> 100	> 100 µM (inactive)	43.2 µM (inactive)	–	–
COc1ccc(/C=C2/C[N+](C)(C)C/C(=C/c3ccc(OC)cc3)C2=O)cc1	36 µM (inactive)	17.9 µM (inactive)	> 68.7 µM (inactive)	40 µM (inactive)	34.7 µM (inactive)	38.2 µM (inactive)	21.9 µM (inactive)	36.1 µM (inactive)	> 100 µM (inactive)	16.7 µM (inactive)	26.9 µM (inactive)	32.5 µM (inactive)	18.5 µM (inactive)	> 100 µM (inactive)	> 100	42.7 µM (inactive)	23.4 µM (inactive)	–	–
Cc1c(Cl)ccc2c1NC(=O)C2(O)C1Cc2ccccc2C1=O (configuration not stated)	86.5 µM (inactive)	> 100 µM (inactive)	> 100 µM (inactive)	> 100 µM (inactive)	41.3 µM (inactive)	> 100 µM (inactive)	41.1 µM (inactive)	> 100 µM (inactive)	92.9 µM (inactive)	25.2 µM (inactive)	> 100 µM (inactive)	62.7 µM (inactive)	26.1 µM (inactive)	> 100 µM (inactive)	> 100	> 100 µM (inactive)	> 100 µM (inactive)	–	–
CCc1nc2ccc(NCCN(C)C)c3c(=O)c4ccccc4n1c23	1.02 µM (active)	0.946 µM (active)	1.67 µM (inactive)	1.67 µM (inactive)	0.479 µM (active)	0.23 µM (active)	0.82 µM (active)	0.404 µM (active)	1.24 µM (inactive)	0.175 µM (active)	0.711 µM (active)	0.337 µM (active)	0.586 µM (active)	2.31 µM (inactive)	0.456	0.305 µM (active)	–	0.656 µM (active)	4.61 µM (inactive)
COC(=O)C(=O)C(CC(=O)Nc1ccc(C)cc1)C(=O)OC (configuration not stated)	> 100 µM (inactive)	> 100 µM (inactive)	> 100 µM (inactive)	> 100 µM (inactive)	> 100 µM (inactive)	> 100 µM (inactive)	> 100 µM (inactive)	> 100 µM (inactive)	> 100 µM (inactive)	> 100 µM (inactive)	> 100 µM (inactive)	> 100 µM (inactive)	> 100 µM (inactive)	> 100 µM (inactive)	> 100	> 100 µM (inactive)	> 100 µM (inactive)	–	–
Cc1c(C(Cc2ccccc2N(C)C(=O)/C=C\C(=O)O)c2c[nH]c3ccccc23)c2ccccc2n1C (configuration not stated)	22.5 µM (inactive)	15.1 µM (inactive)	21.2 µM (inactive)	16.6 µM (inactive)	16.4 µM (inactive)	15.3 µM (inactive)	12.7 µM (inactive)	16 µM (inactive)	14.5 µM (inactive)	22.9 µM (inactive)	20.6 µM (inactive)	15.1 µM (inactive)	14.9 µM (inactive)	17.7 µM (inactive)	14.3	18.1 µM (inactive)	14.9 µM (inactive)	–	–
NC(=O)c1ccccc1NC(=O)C(=O)C(C(=O)c1ccc2ccccc2c1)C1OC(=O)c2ccccc21 (configuration not stated)	11.6 µM (inactive)	14 µM (inactive)	24 µM (inactive)	4.6 µM (inactive)	6.25 µM (inactive)	> 100 µM (inactive)	8.17 µM (inactive)	15.9 µM (inactive)	13.2 µM (inactive)	3.49 µM (inactive)	4.48 µM (inactive)	9.71 µM (inactive)	10.3 µM (inactive)	22.6 µM (inactive)	16.7	8.24 µM (inactive)	12 µM (inactive)	–	–
Clc1ccc(C2=NOC3C4CCC(C4)C23)cc1 (configuration not stated)	> 100 µM (inactive)	59.8 µM (inactive)	> 100 µM (inactive)	> 100 µM (inactive)	> 100 µM (inactive)	> 100 µM (inactive)	> 100 µM (inactive)	> 100 µM (inactive)	> 100 µM (inactive)	59.4 µM (inactive)	> 100 µM (inactive)	> 100 µM (inactive)	> 100 µM (inactive)	> 100 µM (inactive)	> 100	> 100 µM (inactive)	> 100 µM (inactive)	–	–
